Laboratory results as given in patent US20210369860A1, “FUNCTIONALIZED NANOPARTICLE FORMULATIONS FOR ORAL DRUG DELIVERY” (THE REGENTS OF THE UNIVERSITY OF COLORAD, priority 2018, published 2021).

Conditions: mouse, in vivo

IR signal in blood after IV injection: no signal was seen
Structure (SMILES): CCCCCCCCCCCCCCCCCCN1C(=CC=CC=CC=CC2=[N+](CCCCCCCCCCCCCCCCCC)c3ccccc3C2(C)C)C(C)(C)c2ccccc21.[I-] [free DIR, 1,1′-Dioctadecyl-3,3,3′,3′-Tetramethylindotricarbo-cyanine Iodide]
